Where a SMILES comes first, the peptide text is derived from it. The star is where a group is joined. Cbz = O=C(OCc1ccccc1)*
Experiments:
IRS1 [1] = test: IRS1 degradation / protein stability in C2C12 myotubes (Western blotting); type: cell-based, mouse; conditions: for IRS1 degradation upon treatment: increasing concentration, along with protein synthesis inhibitor Emetin, dose-dependent
Method: Differentiated C2C12 myotubes are treated with increasing concentration of IGF1 or dexmethasome (DEX), a glucocorticoid that can lead to muscle atrophy, along with protein synthesis inhibitor Emetin (Eme). […] In C2C12 myotubes, IRS1 is rapidly degraded upon IGF1 treatment with a half-life of around 2 hours (FIGS. 4B and 4E).
Cells are washed twice with warm serum free DMEM and starved in serum free DMEM for 4 hours with an exchange of fresh medium in the middle. Then the signaling inhibitors are added to pretreat cells for 30 min before incubation with freshly prepared inhibitors with 10 nM IGF1 (the R3 form, Sigma, St. Louis, Mo.) or 10 μM Emetin (Sigma, St. Louis, Mo.) or 20 μM MG132 (Alexis Biochemicals, Carlsbad, Calif.) as specified for an additional 5 hours. Cells are rinsed two times with ice-cold PBS and harvested in ice-cold RIPA buffer with 10 μM MG132 and protease/phosphatase inhibitors tablets (Roche, Basel, Switzerland). Cell lysates are rotated at 4° C. for at least one hour, and spun for 10 min at 16,000×g in a micro centrifuge at 4° C. Protein concentrations of the supernatants are determined by BCA Protein Assay Kit (Pierce/Thermo Fisher Scientific, Rockford, Ill.). Equal amounts of proteins (10-20 μg) are loaded per lane on 4-12% Bis-Tris gels (Invitrogen, Carlsbad, Calif.) and transferred onto PVDF membranes (Millipore, Billerica, Mass.). Membranes are blocked in 10% (w/v) milk in TBST for 1 hour at room temperature, followed by incubation with primary antibody in TBST with 5% BSA at 4° C. for overnight. Secondary antibodies are incubated with membranes at room temperature for 1 hour. Immunoreactivity is detected by ECL and exposed to film or Kodak Image Station 4000R (Eastman Kodak Company, Rochester, N.Y.). Densitometry is analyzed using Kodak Molecular Imaging software, version 4.0.
Cells are washed twice with warm serum-free DMEM and starved in serum-free DMEM for 4 hours with an exchange of fresh medium in the middle. At time zero, 10 μM Emetin, or 100 μg/ml of cycloheximide, or 10 nM IGF1, or 20 μM MG132 are added to cells as specified. At the indicated time intervals, cells are rinsed twice with PBS and harvested in ice-cold RIPA buffer with 10 μM MG132 and protease/phosphatase inhibitors. Cell lysates are rotated at 4° C. for at least one hour, and spun for 10 min at 16,000×g in a micro centrifuge at 4° C. The supernatants are analyzed by western blotting.

Fbxo40 = Fbxo40 protein level after MG132 incubation (co-immunoprecipitation experiment, C2C12 myotubes); type: cell-based, mouse; conditions: 20 μM MG132
Excerpt: Ye et al. 2007 Gene 404: 53-60. We survey the FirstChoice Human Total RNA Panel by quantitative real-time PCR and find that Fbxo40 is highly expressed in heart and muscle (FIG. 3). Furthermore, its mRNA (FIG. 6B) and protein (FIG. 8A) is induced during differentiation of C2C12 cells, which coincides with the accelerated degradation of IRS1 in C2C12 myotubes. IRS1 and Rbx1 can be co-immunoprecipitated with antibody against Fbxo40 (FIG. 6C). […] We also use this immunoprecipitated Fbxo40-Rbx1 complex to ubiquitinate recombinant IRS1 in-vitro and find that IRS1 can be ubiquitinated in a time-dependent manner (FIG. 6D). In this experiment, we include six control reactions. The first four controls are the reactions carried out at 30° C. for 90 min with the omission of E1, or E2 (UbCH5c), or His6-Biotin-N-terminal Ubiquitin, or recombinant IRS1 respectively. The last two controls are full reactions carried out without immunoprecipitated Fbxo40 (with beads incubated with lysate without IgG or with nonspecific rabbit IgG). Poly-ubiquitinated IRS1 can be observed in full reactions after 60 min or 90 min at 30° C.
Alternatively, in the experiment of IRS1 and Rbx1 Co-Immunoprecipitation with Fbxo40, day 3 C2C12 myotubes are starved and treated with 10 nM IGF1 or 20 μM MG132 as described above. […]

IRS1 [2] = test: In-vivo ubiquitination assay and immunoprecipitation of IRS1 in C2C12 myotubes; type: cell-based, mouse; conditions: C2C12 myotubes overexpressing his-myc tagged ubiquitin, 10 nM IGF1
Method: Since ubiquitinated proteins are rapidly degraded in cells, in order to detect ubiquitinated IRS1 protein in the experiment shown in FIG. 4C, C2C12 myotubes are infected with an adenovirus overexpressing his-myc tagged ubiquitin and incubated with IGF1 along with MG132 or an isopeptidase inhibitor G5. IRS1 is immunoprecipitated with the rabbit polyclonal anti-IRS1 antibody (lanes 6, 8, 10, 12) or non-specific IgG (lanes 5, 7, 9, 11) as control. Poly-ubiquitination is detected with monoclonal anti-myc antibody against the his-myc tagged ubiquitin and is found to be specifically immunoprecipitated with IRS1 (FIG. 4C, upper panel). […] Note that in the upper panel of FIG. 4C, G5 treatment also causes an upper shift of his-myc tagged ubiquitin in comparison to MG132 treatment alone (compare lane 10 to lane 8). In agreement with the induced degradation of IRS1 upon IGF1 treatment, poly-ubiquitinated IRS1 also increases with IGF1 treatment (FIG. 4D, upper panel) despite that the total amount of ubiquitinated proteins in cells even decreased a little (FIG. 4D, lower panel).
A His-myc-ubiquitin adenoviral expression constructs are sent to Welgen Inc. (Worcester, Mass.) for production and purification. […] Protein concentration in the supernatant is determined by BCA analysis. […] An aliquot (20 μg) of the lysate is analyzed by Western blotting along with 100% of the eluate.

[3] = target: purified recombinant IRS1 protein (Millipore)
Chain of purified recombinant IRS1 protein (Millipore) (P35568 whole entry): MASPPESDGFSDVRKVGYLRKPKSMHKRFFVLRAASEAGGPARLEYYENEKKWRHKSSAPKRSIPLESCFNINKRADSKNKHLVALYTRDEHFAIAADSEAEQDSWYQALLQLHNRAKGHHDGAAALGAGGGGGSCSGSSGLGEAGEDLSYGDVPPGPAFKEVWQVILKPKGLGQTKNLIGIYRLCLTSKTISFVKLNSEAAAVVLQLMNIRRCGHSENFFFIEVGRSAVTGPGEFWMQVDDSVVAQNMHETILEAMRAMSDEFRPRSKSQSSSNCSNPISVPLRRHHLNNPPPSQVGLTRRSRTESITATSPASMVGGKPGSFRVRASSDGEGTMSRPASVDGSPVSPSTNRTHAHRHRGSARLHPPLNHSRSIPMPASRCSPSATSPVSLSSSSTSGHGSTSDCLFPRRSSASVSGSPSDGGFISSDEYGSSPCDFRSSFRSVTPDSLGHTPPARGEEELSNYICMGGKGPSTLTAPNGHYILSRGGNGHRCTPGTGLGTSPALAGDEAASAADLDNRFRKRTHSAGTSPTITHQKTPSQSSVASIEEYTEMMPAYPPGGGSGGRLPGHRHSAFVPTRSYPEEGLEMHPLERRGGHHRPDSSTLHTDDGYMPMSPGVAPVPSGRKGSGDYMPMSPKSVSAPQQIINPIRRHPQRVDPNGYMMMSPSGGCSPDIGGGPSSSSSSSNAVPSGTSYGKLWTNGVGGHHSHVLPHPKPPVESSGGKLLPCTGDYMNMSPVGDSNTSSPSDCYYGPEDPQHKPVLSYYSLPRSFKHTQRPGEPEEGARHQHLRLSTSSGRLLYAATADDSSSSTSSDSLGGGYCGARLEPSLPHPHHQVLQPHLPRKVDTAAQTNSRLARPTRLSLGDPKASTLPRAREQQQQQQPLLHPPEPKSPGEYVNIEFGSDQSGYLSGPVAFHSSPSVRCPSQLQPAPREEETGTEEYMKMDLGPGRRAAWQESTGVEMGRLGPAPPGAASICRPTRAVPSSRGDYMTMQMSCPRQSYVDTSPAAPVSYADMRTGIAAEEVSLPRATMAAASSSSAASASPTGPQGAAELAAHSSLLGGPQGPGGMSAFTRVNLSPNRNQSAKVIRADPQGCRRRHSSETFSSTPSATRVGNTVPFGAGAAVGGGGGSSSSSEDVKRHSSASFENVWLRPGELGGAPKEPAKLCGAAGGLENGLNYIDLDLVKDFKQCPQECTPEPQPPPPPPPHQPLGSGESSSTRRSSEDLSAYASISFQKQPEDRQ

C[C@@H]1C[C@H]2[C@@H]3CCC4=CC(=O)C=C[C@]4(C)[C@@]3(F)[C@@H](O)C[C@]2(C)[C@@]1(O)C(=O)CO [DEX, dexmethasome, reference compound]
IRS1 degradation upon treatment (IRS1 [1]): not

CC(C)C[C@@H](C=O)NC(=O)[C@H](CC(C)C)NC(=O)[C@H](CC(C)C)NC(=O)OCc1ccccc1 [MG132, reference compound] (Cbz-Leu-Leu-Leu-aldehyde)
Fbxo40 protein level after incubation with MG132 (Fbxo40): increases | stabilization of IRS1 protein (IRS1 [1]; IGF1 treatment, 20 μM MG132): substantially stabilizes

insulin-like growth factor-1 (IGF1)
poly-ubiquitinated IRS1 (IRS1 [2]): increases | half-life of IRS1 upon IGF1 treatment (IRS1 [1]; 10 nM IGF1): around 2 hours | protein level of IRS1 in cells treated with IGF1 alone (IRS1 [1]; IGF1 alone (no Emetin), slower kinetics): decreases | IRS1 degradation upon treatment (IRS1 [1]): IRS1 is degraded

B1: Fbxo40, endogenous in C2C12 myotubes (protein)
chain: MGRARKPPPALHRHCEGCFNRHCHVPVEPSVSCLVISCHLLCGATFHMCKESEHTLLCPLEQVPCLNSEYGCPLSMARHKLAKHLQVCPASVVCCSMEWIRWPNVDSETFLHENIMKETPSEECLDTALALQDQKVLFRSLKMVELFPETRDATEEEPDMNGDTSWEETGGAVGGVDARLAPNSCLPATSRQMMELSQEERDALAKTKEGMDLDKFGKWESMFSKEHAASVLTGSLGKSEDKNGDVAGKEQCSSNVRIGDAEGSAERRGPQESQKSQELPATMEMTGLAPWQDGVLERLKTAVDAKDYNMYLVHNGRMLIHFGQMPACTPKERDFVYGNLEAQEVKTVYTFKIPVSYCGKRARLGDAMLKCRPSEHKAVDTSDLGISVEDLPKSDLIKTTLQCALERELKGHVISESRSIDGLFMDLATQTYNFEPEQFSSETVLADLLGTAQPGGLHVELHSECVTRRHNKSSSAFTFTCNKFFRRDEFPLHFKNVHTDIQSSLDGWFQHRCPLAYLGCTFVQNHFRPPGQKAKVIYSQELKTFAIKPEVAPELSEKWKSDHLSGRDGKSLNSLTSLPLEVLQYIAGFLDSISLSQLSQVSVLMRNICATLLQERGMVLSQWKKKRYSHGGTSWKVHNQIWQFSSLFSKINSWEFNDVTSMSEHLKTCPFNIVERKTDPIRLTSMCQPQEKARESLVSTFRARPRGRHF
in-vitro ubiquitination of recombinant IRS1 (streptavidin-HRP blot of His6-Biotin-ubiquitin) [3]: IRS1 can be ubiquitinated in a time-dependent manner

Reference: patent US20120296403A1, “METHODS AND COMPOUNDS FOR MUSCLE GROWTH” (NOVARTIS AG, priority 2010, published 2012)
